Here are results for one compound from ChEMBL document CHEMBL1147729, “(+)-(2R,5S)-4-[4-cyano-3-(trifluoromethyl)phenyl]-2,5-dimethyl-N-[6-(trifluoromethyl)pyridin-3-yl]piperazine-1-carboxamide (YM580) as an orally potent and peripherally selective nonsteroidal androgen receptor antagonist” (J Med Chem, 2006).

Data set [1] is described as follows: Cmax in rat plasma at 3 mg/kg, po. Format: ADME, organism-based. Details: dose 3 mg/kg, route oral.
The nature of data set [2]: Cmax in rat hypothalamus at 3 mg/kg, po. Type of data set: ADME, organism-based. On the set-up: dose 3 mg/kg, route oral.
Data set [3] can be described thus: Oral clearance in rat at 3 mg/kg, po. Type of data set: ADME, organism-based. Particulars: in vivo. Details: dose 3 mg/kg, route oral.
The next data set deals with T1, Glucocorticoid receptor (Homo sapiens, UniProt P04150).
T1 sequence (P04150 whole entry): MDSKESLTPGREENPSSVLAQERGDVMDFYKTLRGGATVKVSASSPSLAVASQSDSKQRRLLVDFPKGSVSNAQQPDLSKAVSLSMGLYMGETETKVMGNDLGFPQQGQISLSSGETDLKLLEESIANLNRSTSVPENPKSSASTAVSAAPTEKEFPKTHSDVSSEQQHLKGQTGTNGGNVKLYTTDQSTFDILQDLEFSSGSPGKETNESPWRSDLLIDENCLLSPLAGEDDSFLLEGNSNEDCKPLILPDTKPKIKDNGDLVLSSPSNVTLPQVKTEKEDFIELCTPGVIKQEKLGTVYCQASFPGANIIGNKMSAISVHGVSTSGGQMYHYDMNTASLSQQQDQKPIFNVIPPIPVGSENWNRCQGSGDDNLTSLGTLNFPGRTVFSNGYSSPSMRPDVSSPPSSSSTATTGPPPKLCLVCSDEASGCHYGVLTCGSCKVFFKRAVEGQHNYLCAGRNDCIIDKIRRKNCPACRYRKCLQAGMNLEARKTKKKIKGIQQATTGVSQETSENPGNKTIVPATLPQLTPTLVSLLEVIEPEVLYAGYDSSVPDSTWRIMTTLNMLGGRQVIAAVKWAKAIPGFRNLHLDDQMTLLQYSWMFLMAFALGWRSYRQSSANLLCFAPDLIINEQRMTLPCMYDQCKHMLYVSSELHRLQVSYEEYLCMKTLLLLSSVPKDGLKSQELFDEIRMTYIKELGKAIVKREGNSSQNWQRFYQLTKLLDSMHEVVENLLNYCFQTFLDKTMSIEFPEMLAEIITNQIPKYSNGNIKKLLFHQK
The data set can be described thus: Inhibition of human GR.

The nature of data set [4]: Half life in rat plasma at 3 mg/kg, po. Type of data set: ADME, organism-based. Details: dose 3 mg/kg, route oral.
Data set [5] deals with Rattus norvegicus. In words: Effect on ventral prostate weight with reference to control in Wistar rat at 30 mg/kg/day, po. Format: functional. Particulars: Prostate gland.
Data set [6] can be described thus: AUC (0-72)hrs in rat plasma at 3 mg/kg, po. Details: time < 72 hr, dose 3 mg/kg, route oral. Format: ADME, organism-based.
The target of another data set is T2, Estrogen receptor (Homo sapiens, UniProt P03372).
T2 sequence (P03372 whole entry): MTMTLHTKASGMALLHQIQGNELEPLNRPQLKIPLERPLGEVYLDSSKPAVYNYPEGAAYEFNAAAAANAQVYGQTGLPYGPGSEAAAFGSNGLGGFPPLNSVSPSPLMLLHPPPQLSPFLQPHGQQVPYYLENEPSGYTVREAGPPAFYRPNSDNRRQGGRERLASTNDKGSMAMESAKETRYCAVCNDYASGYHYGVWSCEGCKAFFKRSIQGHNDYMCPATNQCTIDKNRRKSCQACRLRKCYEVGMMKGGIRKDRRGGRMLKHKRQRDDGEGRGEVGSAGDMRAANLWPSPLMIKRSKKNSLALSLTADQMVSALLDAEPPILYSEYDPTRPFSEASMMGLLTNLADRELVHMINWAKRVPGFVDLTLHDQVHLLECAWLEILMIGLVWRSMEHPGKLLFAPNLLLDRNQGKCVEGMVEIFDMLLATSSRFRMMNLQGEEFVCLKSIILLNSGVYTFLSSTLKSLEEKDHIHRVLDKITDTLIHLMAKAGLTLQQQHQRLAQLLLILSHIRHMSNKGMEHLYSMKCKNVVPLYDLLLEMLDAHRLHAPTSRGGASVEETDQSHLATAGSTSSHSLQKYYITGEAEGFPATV
The data set can be described thus: Inhibition of human ERalpha.

The test system of data set [7] is Rattus norvegicus. In words: Effect on ventral prostate weight with reference to control in Wistar rat at 10 mg/kg/day, po. Type of data set: functional, Prostate gland. The settings on record: Rattus norvegicus, Wistar, Prostate gland.
Data set [8] in a line: Cmax in rat ventral prostate at 3 mg/kg, po. Format: ADME, organism-based, Prostate gland. Details: dose 3 mg/kg, route oral.
Data set [9] is described as follows: Half life in rat ventral prostate at 3 mg/kg, po. On the set-up: dose 3 mg/kg, route oral. Format: ADME, organism-based, Prostate gland.
In the next data set the target is T3, Progesterone receptor (Rattus norvegicus, UniProt Q63449).
T3 sequence (Q63449 whole entry): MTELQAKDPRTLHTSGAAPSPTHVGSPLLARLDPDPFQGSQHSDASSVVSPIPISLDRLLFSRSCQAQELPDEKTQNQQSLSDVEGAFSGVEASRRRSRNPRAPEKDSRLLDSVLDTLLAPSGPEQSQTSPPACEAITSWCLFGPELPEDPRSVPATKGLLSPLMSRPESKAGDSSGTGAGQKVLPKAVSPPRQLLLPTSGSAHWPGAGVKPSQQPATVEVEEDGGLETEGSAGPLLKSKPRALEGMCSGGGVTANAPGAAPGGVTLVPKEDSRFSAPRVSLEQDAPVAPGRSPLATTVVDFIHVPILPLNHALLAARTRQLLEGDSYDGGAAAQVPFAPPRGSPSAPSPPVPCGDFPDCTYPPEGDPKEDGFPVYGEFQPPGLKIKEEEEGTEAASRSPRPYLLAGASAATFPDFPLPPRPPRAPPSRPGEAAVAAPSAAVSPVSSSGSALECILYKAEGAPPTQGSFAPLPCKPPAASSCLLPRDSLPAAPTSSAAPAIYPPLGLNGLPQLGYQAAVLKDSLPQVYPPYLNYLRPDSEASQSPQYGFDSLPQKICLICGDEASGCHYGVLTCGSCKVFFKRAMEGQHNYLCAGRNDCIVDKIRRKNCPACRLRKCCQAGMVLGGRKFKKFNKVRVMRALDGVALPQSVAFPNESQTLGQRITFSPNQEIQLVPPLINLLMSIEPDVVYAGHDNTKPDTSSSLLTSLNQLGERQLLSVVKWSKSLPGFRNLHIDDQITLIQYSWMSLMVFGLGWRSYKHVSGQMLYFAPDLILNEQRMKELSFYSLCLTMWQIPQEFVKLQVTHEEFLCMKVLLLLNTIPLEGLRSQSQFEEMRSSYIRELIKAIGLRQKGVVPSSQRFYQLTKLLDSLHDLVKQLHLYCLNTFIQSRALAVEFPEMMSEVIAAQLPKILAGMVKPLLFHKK
The data set can be described thus: Inhibition of rat PR.

Data set [10] is described as follows: AUC (0-72)hrs in rat ventral prostate at 3 mg/kg, po. Format: ADME, organism-based, Prostate gland. On the set-up: time < 72 hr, dose 3 mg/kg, route oral.
The nature of data set [11]: Oral clearance in rat ventral prostate at 3 mg/kg, po. Type of data set: ADME, organism-based, Prostate gland. Details: dose 3 mg/kg, route oral.
Data set [12] is described as follows: AUC (0-72)hrs in rat hypothalamus at 3 mg/kg, po. Type of data set: ADME, organism-based. On the set-up: time < 72 hr, dose 3 mg/kg, route oral.

What is called Cmax is the maximum level reached in the sampled fluid or tissue. The term CL/F denotes clearance divided by bioavailability, as obtained after extravascular dosing. A word on the Ki: it is the equilibrium dissociation constant of an inhibitor or competing ligand from its target. Read a low Ki as tighter binding. As usually defined, the half-life is the time needed for the level to fall by half in the phase considered. Low values mean fast loss, high ones slow loss. Broadly, the ED50 is the dose that gives a 50% effect, or the effect in half of the subjects. A higher ED50 goes with weaker potency. One may read the AUC as concentration integrated over time. The inhibition in vivo is the change of the read-out against control, counted positive when it falls. The low end stands for a response near the control, the high end for a response far below the control. With `C[C@@H]1CN(c2ccc(C#N)c(C(F)(F)F)c2)[C@@H](C)CN1C(=O)Nc1ccc(C(F)(F)F)nc1` (racemic), the Cmax in data set [1] is 702 ng/mL; in [2], 96 ng/mL; in data set [8], 1560 ng/mL. Also, the values for the CL/F in data set [3] and in data set [11] were 2.22 mL/min/kg and 1.14 mL/min/kg, respectively. In addition, the Ki was more than 100 µM on Glucocorticoid receptor, more than 100 µM at Estrogen receptor and 3.3 µM at Progesterone receptor. For the same compound, the half-life in [4] was 12.5 h; in [9], 11.2 h. Further, in the data set with Rattus norvegicus [5], it took a dose of 2.2 mg/kg to reach the 50% effect level (ED50). Besides, the results for the AUC at 72 h in [6], in [10] and in data set [12] were 22000 ng·h/mL, 43200 ng·h/mL and 2580 ng·h/mL, respectively. The inhibition in vivo at 10 mg/kg/day in the data set on Rattus norvegicus [7] was 67%.
